Experimental data reported in ChEMBL document CHEMBL1201862, “PubChem BioAssay data set” (2004).
Active and inactive are the calls of the source.

Experiments:
Format in all cases: functional
[1] = biological target: T1, High affinity choline transporter 1 (Homo sapiens, UniProt Q9GZV3); assay: CHT inhibitors, dose response, cell-based, 5-point CRC, membrane potential dye (AID 504840)
T1 sequence (Q9GZV3 whole entry): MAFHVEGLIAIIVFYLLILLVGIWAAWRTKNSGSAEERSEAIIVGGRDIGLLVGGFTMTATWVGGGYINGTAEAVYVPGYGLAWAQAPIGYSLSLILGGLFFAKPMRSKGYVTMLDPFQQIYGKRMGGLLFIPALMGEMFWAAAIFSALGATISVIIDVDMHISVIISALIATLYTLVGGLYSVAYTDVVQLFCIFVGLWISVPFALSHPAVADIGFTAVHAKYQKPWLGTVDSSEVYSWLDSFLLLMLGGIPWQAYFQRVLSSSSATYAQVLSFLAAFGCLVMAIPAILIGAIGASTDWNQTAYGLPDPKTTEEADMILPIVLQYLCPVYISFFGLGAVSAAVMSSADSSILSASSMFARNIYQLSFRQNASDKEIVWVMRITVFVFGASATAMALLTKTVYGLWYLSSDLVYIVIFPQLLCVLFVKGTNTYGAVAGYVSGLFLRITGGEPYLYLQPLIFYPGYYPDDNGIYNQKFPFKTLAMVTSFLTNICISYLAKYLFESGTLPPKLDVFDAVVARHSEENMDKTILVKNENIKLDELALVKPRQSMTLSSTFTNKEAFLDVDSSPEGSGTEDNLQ

[2] = biological target: T1, High affinity choline transporter 1; assay: CHT inhibitors, dose response, cell-based, 10-point CRC, membrane potential dye (AID 588401);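 note: membrane potential dye fluorescence of choline-evoked depolarization via CHT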
[3] = SAR analysis of small molecule activators of Apaf-1 using a LZ-Caspase-9/Caspase-3 Fluorescent Selectivity assay - Set 2.; settings: read-out: EC50_Mean
[4] = biological target: T2, Apoptotic protease-activating factor 1 (Homo sapiens, UniProt O14727); assay: SAR analysis of small molecule Activators of Apaf-1 in a Fluorescent assay - set 2.; settings: read-out: EC50_Mean
T2 sequence (O14727 whole entry): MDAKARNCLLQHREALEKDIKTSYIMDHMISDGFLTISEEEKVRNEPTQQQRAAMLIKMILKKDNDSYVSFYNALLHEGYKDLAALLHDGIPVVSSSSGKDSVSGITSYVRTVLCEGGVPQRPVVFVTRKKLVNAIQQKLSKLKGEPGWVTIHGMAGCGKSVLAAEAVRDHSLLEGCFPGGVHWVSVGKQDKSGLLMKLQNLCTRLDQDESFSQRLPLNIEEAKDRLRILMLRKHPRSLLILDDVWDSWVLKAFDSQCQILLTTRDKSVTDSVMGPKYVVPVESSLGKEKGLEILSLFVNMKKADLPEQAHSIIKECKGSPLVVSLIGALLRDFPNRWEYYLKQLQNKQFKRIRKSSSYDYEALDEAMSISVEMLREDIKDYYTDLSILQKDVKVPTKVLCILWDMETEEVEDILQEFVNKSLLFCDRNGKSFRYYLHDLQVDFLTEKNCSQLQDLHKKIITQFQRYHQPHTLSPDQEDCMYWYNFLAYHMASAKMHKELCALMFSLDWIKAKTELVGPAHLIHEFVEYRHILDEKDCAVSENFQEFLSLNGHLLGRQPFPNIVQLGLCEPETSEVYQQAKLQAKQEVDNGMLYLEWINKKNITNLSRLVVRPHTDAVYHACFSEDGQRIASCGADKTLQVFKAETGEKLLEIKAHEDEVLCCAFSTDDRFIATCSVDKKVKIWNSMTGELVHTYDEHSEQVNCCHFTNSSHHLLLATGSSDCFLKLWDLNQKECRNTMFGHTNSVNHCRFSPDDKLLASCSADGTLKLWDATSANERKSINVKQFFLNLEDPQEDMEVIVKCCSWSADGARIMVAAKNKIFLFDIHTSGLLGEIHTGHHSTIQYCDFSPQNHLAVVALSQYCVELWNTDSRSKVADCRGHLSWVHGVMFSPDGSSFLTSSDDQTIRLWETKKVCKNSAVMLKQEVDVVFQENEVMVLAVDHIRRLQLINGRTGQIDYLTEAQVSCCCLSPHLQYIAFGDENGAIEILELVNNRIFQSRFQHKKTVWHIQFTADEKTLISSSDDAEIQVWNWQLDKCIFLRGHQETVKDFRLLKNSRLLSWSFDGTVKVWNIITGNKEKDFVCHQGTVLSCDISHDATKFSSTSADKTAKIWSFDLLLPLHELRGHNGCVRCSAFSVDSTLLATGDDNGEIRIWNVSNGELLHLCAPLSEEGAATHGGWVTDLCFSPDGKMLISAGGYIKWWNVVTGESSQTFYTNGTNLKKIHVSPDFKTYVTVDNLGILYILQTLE

Row | SMILES | IC50 [1] | IC50 [2] | EC50 [3] | EC50 [4]
1 | CCOC(=O)c1cc(C(=O)NC(C)c2ccccc2)c(C)nc1O (centres undefined) | 1.77 µM (active) | 0.447 µM (active) | – | –
2 | CC(Cn1cnc2ccccc21)C(=O)O (centres undefined) | – | – | > 100 µM (inactive) | 83.2 µM (active)
